Drawing on PubChem BioAssay (NCI), this text covers GI50 and TGI for three compounds.

Some test systems named below: HOP-92 NSCLC; NCI-H460 lung; SNB-19 CNS; K-562 leukemia; UACC-257 melanoma; SK-OV-3 ovarian; HOP-62 NSCLC; HCT-15 colon; PC-3 prostate; NCI/ADR-RES ovarian.
Holding throughout (assay): NCI-60 cell line screen, 48 h

“And” between values parts separate entries of the source, which are not always exact repeats. Identical values can stand only once.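 96-well plates; 48 h exposure; 5 concentrations. Endpoints by linear interpolation between flanking doses. Not reached: highest tested concentration assigned. GI50: concentration for 50% inhibition of growth. The concentration for full growth arrest is given as TGI.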 Bounds are passed on as bounds.

As to `C=C1C(=O)O[C@H]2[C@H]1CC/C(COC(=O)NCc1c[nH]c3ccc(OC)cc13)=C\CC[C@@]1(C)O[C@@H]21`, the GI50 is 1790 nM with HOP-92 NSCLC; 3760 nM in the test with NCI-H460 lung; 4760 nM in the test on SNB-19 CNS; 279 nM in the test with K-562 leukemia; 2020 nM in the test on UACC-257 melanoma; 12700 nM in the test with SK-OV-3 ovarian. The GI50 with HOP-62 NSCLC was 10600 nM; in the test on HCT-15 colon, 1340 nM; with PC-3 prostate, 1070 nM; in the test on NCI/ADR-RES ovarian it was 7870 nM. Moreover, the TGI with HOP-92 NSCLC is 3440 nM; in the test with NCI-H460 lung it was 16700 nM; in the test with SNB-19 CNS it was 18400 nM; with K-562 leukemia it was 11200 nM; in the test with UACC-257 melanoma, 5010 nM; in the test on SK-OV-3 ovarian, 25200 nM. Also, the TGI with HOP-62 NSCLC was 24100 nM; in the test on HCT-15 colon, 2730 nM; in the test with PC-3 prostate, 2590 nM; in the test with NCI/ADR-RES ovarian, 28800 nM.

For `CCNC(=O)Nc1ccc(-c2nc3c(c(N4CCOC[C@@H]4C)n2)CCN(C2COC2)C3)cc1`, the GI50 in the test with HOP-92 NSCLC is 43 nM and 30.7 nM; in the test with NCI-H460 lung, 236 nM and 130 nM; with SNB-19 CNS, 303 nM and 450 nM; with K-562 leukemia, 1270 nM and 1100 nM; in the test on UACC-257 melanoma, 232 nM and 287 nM; in the test with SK-OV-3 ovarian it was 148 nM and 131 nM. The GI50 is 443 nM and 391 nM with HOP-62 NSCLC; 638 nM and 450 nM with HCT-15 colon; 166 nM and 106 nM in the test with PC-3 prostate; 2870 nM and 1780 nM in the test with NCI/ADR-RES ovarian. For the same compound, the TGI in the test with HOP-92 NSCLC was 681 nM and 493 nM; in the test with NCI-H460 lung, > 100000 nM; in the test on SNB-19 CNS, > 21600 nM; with K-562 leukemia, > 100000 nM; in the test with UACC-257 melanoma it was 2740 nM and 3920 nM; in the test on SK-OV-3 ovarian, 1160 nM and 956 nM. In addition, the TGI in the test on HOP-62 NSCLC was 22000 nM and > 7450 nM; in the test with HCT-15 colon, > 100000 nM; in the test with NCI/ADR-RES ovarian, > 100000 nM.

In the case of `Cc1ccccc1NC(=O)N/C(N)=N/c1nc2ccccc2s1`, the TGI in the test on HOP-92 NSCLC, in the test with NCI-H460 lung, in the test with SNB-19 CNS, in the test with K-562 leukemia, with UACC-257 melanoma and with SK-OV-3 ovarian was > 100000 nM each time. In addition, the TGI was > 100000 nM in the test on HOP-62 NSCLC, > 100000 nM in the test with HCT-15 colon, > 100000 nM in the test on PC-3 prostate and 5840 nM with NCI/ADR-RES ovarian. Besides, the GI50 in the test on NCI-H460 lung is 113 nM; in the test with SNB-19 CNS, 104 nM; with K-562 leukemia, 32.7 nM; in the test with UACC-257 melanoma, > 100000 nM; in the test on SK-OV-3 ovarian it was 416 nM; in the test on HOP-62 NSCLC, 110 nM. Further, the GI50 with HCT-15 colon was 43.4 nM; with PC-3 prostate, 59 nM; in the test on NCI/ADR-RES ovarian, 37.2 nM.
